For one data set, the target named is T1, PTPN2 (Homo sapiens, UniProt P17706).
T1 sequence (P17706 1-415): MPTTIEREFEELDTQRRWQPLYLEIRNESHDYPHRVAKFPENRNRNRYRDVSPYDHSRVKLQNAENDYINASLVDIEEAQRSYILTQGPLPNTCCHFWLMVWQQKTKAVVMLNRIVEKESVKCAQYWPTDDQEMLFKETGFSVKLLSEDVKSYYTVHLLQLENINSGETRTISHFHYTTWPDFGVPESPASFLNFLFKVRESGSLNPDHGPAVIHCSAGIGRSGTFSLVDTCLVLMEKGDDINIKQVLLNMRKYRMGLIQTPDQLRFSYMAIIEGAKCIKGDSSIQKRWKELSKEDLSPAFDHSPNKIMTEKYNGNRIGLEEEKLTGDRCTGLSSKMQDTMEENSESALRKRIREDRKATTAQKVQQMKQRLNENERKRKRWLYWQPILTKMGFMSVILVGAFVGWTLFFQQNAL
The data set is described as follows: Phosphatase activity assay (Bio-Biochem-DiFMUP), PTPN2. The data set is classed as biochemical. The settings on record: DiFMUP substrate, room temperature. Put shortly: (§1)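 Buffer was 50 mM Bis-Tris pH 6.3, 2 mM EDTA, 5 mM DMH, with 10 μM FDP or DiFMUP substrate, enzyme added last, at room temperature. Fluorescent product was read continuously for 15–30 min (DiFMU ex 360/em 450 nm; FMP ex 440/em 530 nm). Initial rates against 10-point inhibitor series were fitted with a 4-parameter equation to give IC50.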

A further data set concerns mouse C57BL/6 T cells. The data set can be described thus: pSTAT1 signaling in IFNα-stimulated T cells, flow cytometry. To be noted: T-cell, 10 uM compound, T cells stimulated for 5 hours by IFNα, read-out: % pSTAT1 in cells treated with subject compounds relative to negative control (DMSO). The data set is classed as cell-based. As to the method:
IFNα signaling in mouse C57BL/6 T cells promotes activation of multiple signaling pathways associated with antitumor responses. A key target of this signaling is phosphorylation of the transcription factor STAT1. […] T cells are stimulated for 5 hours by IFNα in the presence or absence of exemplified compounds disclosed herein (e.g., PTPN2 inhibitors) and stained intracellularly with antibodies for phosphorylated STAT1 and then analyzed by flow cytometry. Enhancement of phosphorylation of STAT1 is read out as a percentage over the DMSO control.
For orientation: A flow cytometer gives signals particle by particle.

For another data set, the target named is T2, PTP1B (Homo sapiens, UniProt P18031).
T2 sequence (P18031 1-435): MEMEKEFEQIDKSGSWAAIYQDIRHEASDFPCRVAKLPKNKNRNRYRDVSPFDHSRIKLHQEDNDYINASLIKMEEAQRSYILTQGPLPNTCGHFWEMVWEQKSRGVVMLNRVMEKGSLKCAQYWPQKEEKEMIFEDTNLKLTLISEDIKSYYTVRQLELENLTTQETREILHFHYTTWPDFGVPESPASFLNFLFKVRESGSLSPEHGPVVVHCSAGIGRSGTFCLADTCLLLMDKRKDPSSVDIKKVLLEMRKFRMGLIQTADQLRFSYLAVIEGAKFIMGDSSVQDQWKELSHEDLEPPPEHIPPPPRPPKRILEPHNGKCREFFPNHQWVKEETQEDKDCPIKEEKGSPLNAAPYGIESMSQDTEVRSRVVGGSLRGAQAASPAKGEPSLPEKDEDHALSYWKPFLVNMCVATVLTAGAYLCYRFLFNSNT
The data set is described as follows: Phosphatase activity assay (Bio-Biochem-DiFMUP), PTP1B. To be noted: DiFMUP substrate, room temperature. Format: biochemical. Put shortly:
as §1

The subject of data set [1] is C57B3L/6 mouse primary T cells. The data set can be described thus: T-cell activation: CD25 expression on primary T cells stimulated with anti-CD3/CD28. The data set is classed as cell-based. The settings on record: 10 uM compound, primary T cells stimulated with antibodies to CD3 and CD28. As to the method:
The increase of T cell activation and most importantly T cell function is a strategy for novel immune oncology approaches to promote tumor immunity. In vitro assays using wildtype C57B3L/6 mouse primary T cells are commonly used to assess the impact of compound on T cell activation and function. To assess the ability of compounds disclosed here (e.g., PTPN2 inhibitors) to stimulate T cell activation, primary T cells stimulated with antibodies to CD3 and CD28 are treated with or without exemplary compounds (at 10 uM) disclosed herein are stained with antibodies directed to T-cell activation markers, such as CD25. Additional markers including without limitation CD69, SLAMF6, TIM3, and PD1 can also be employed as a proxy for T cell activation.

Data set [2] relates to B16F10 mouse melanoma cells. The data set is described as follows: MHC expression associated with IFNγ signaling, flow cytometry. To be noted: B16-F10, 3 uM compound, 48 hours, normalized to DMSO/with IFNγ control, read-out: % MHC in cells treated with Compound at 3 uM relative to negative control (DMSO). The data set is classed as cell-based. As to the method: B16F10 mouse melanoma cells (ATCC Cat #CRL-6475, Manassas, VA) are seeded at approximately a density of 500 cells per well in a 384-well clear bottom plate (Corning Cat #3765, Corning, 5 NY) in 25 μL total volume of DMEM+10% FBS (Sigma Cat #D6429 and Sigma Cat #F4135, St. Louis, MO). Cells are allowed to adhere overnight at 37° C.+5% CO2. On the following day, 12.5 μL of mouse IFNγ (RD systems Cat #485-MI/CF, Minneapolis, MN) is added to half of the plate (columns 13-24) at a concentration of 2 ng/mL for a final assay concentration of 0.5 ng/mL of IFNγ. Media only (12.5 μL of DMEM+10% FBS) is added to the remainder of the 10 plate (columns 1-12). Next, compounds resuspended in DMSO (Sigma Cat #D2650) at 100 mM are diluted in semi-log dilutions in DMSO ranging from 100 mM to 0.001 mM and DMSO only controls are included. The compound/DMSO dilutions are further diluted 1:250 in DMEM+10% FBS, and 12.5 μL of these dilutions are added in triplicates to cells of both treatment arms (with and without IFNγ). Compounds are only dosed in the inner 240 wells, avoiding the outer 2-well perimeter of the plate to minimize edge effects. Finally, the plate is loaded into an IncuCyte® S3 Live Cell Analysis System (Essen Bioscience-Sartorius, Ann Arbor, MI) maintained in a 37° C.+5% CO2 incubator, allowed to equilibrate for 2 hours, and treated for 48 hours. MHC levels are measured by flow cytometry using a FITC anti-mouse H-2kb antibody (clone AF6-88.5), and levels are normalized based on DMSO/with IFNγ control. Table 7 below summarizes the percentage in MHC expression in cells treated with or without compounds disclosed herein at a specified concentration.

Data set [3] relates to B16F10 cells. The data set can be described thus: Tumor infiltrating lymphocyte exhaustion assay. The data set is classed as in vivo, mouse. To be noted: Day 7 post dosing, B16F10 tumors in C57BL/6 mice. The source says: The same mouse model is utilized to assess the amount of tumor infiltrating lymphocytes when treated with or without an exemplary compound A of the present disclosure. C57BL/6 mice were implanted with 5*10^5 B16F10 cells formulated in Matrigel via the subcutaneous route. After tumors reached a size of 50-150 mm^3, mice were randomized. 7 days post randomization, tumor cells were processed on a GentleMACS octo dissociator and stained for exhaustion markers using a panel of antibodies: Live/Dead, CD45.1, CD8, TIM-3, PD-1, SLAMF6, CD11b, CD38. In parallel, splenocytes were stained with the same cocktail of antibodies and analyzed by flow cytometry. […] PTPN2 inhibitors are tested in the described TIL exhaustion assay to measure modulation of exhaustion in the tumor microenvironment.

Data set [4] in a line: mouse PK PO (oral pharmacokinetics, Compound A vs. Reference CMPD). The data set is classed as in vivo. The settings on record: identical oral dosing. The method, then:
(§2) Furthermore, an AUCfinal for Compound A was measured to be 356% that of the Reference CMPD measured in the same manner and at the same time in the same mouse model. […] Furthermore, an AUCfinal for Compound A was measured to be 224% that of the Reference CMPD measured in the same manner and at the same time in the same rat model.

Data set [5] in a line: Rat PK PO (oral pharmacokinetics, Compound A vs. Reference CMPD). Format: in vivo. To be noted: identical oral dosing. The method, then: as §2
Data set [6] has as its system B16F10 cells. The data set is described as follows: In vivo efficacy in B16F10 mouse tumor model. To be noted: B16F10 in female C57BL/6 mice, oral BID, 100 or 300 mg/kg/dose. As to the method:
Cells are grown to passage 3 in vitro. A total of 1 to 5×10^5 viable B16F10 cells are inoculated subcutaneously into the right flank of female C57BL/6 mice (7-12 weeks old) on Day 0. The injection volume is 0.1 mL and is composed of a 1: 1 mixture of S-MEM and Matrigel® (Corning, NY, USA). The mean tumor volume (TV) at randomization is approximately 100-200 mm^3. Following randomization, treatments are initiated on the same day. Dosing of mice is conducted orally, twice a day (BID). Mice are dosed (100 mg/kg/dose or 300 mg/kg/dose) with a compound described herein or vehicle controls. Tumor volume is calculated three times weekly. Measurements of the length (L) and width (W) of the tumor are taken via electronic caliper and the volume is calculated according to the following equation: V=L×W^2/2. Tumor growth inhibition (TGI) is calculated as TGI=1−(Mean TV Timepoint(Treatment)/MeanTV Timepoint (Vehicle)) for each timepoint that tumor volumes are measured and depicted in FIG. 3.

[7] abbreviates: mouse PK PO, relative to Reference CMPD of WO2019/246513.
Where [8] appears, read: Rat PK PO, relative to Reference CMPD of WO2019/246513.

The term IC50 denotes the point on the concentration scale where inhibition reaches its midpoint.

For the molecule `CC(C)Nc1cc2c(F)c(N3CC(=O)NS3(=O)=O)c(O)cc2n(C2CC2)c1=O` [Compound 133], the IC50 on PTPN2 and on PTP1B was at most 1 µM each time. The activity at 10 µM with mouse C57BL/6 T cells turned out to be 170%.
On to `CC(C)CCOc1cc2c(F)c(N3CC(=O)NS3(=O)=O)c(O)cc2n(C)c1=O` [Compound 136, 5-(5-fluoro-7-hydroxy-3-(isopentyloxy)-1-methyl-2-oxo-1,2-dihydroquinolin-6-yl)-1,2,5-thiadiazolidin-3-one 1,1-dioxide], for which the IC50 on PTPN2 and at PTP1B was at most 1 µM each time. For the same molecule, the activity at 10 µM in the data set on mouse C57BL/6 T cells came out at 131%.
As for `CC(C)Nc1cc2c(F)c(N3CC(=O)NS3(=O)=O)c(O)cc2n(C)c1=O` [Compound 165], the IC50 on PTPN2 and on PTP1B was at most 1 µM throughout. For the same molecule, the activity at 10 µM in the data set with mouse C57BL/6 T cells came to 139%.
Take `O=C1CN(c2c(O)cc3c(cc(NC4CCCC4)c(=O)n3C3CC3)c2F)S(=O)(=O)N1` [Compound 185]: the half-inhibitory concentration (IC50) on PTPN2 and at PTP1B was at most 1 µM throughout. For the same molecule, the activity at 10 µM with mouse C57BL/6 T cells came to 181%.
As for `CC(C)Oc1ccc2cc(O)c(N3CC(=O)NS3(=O)=O)c(F)c2n1` [Compound 192], the IC50 at PTPN2 and at PTP1B was at most 1 µM in each case. In addition, in [1], the “% CD25 expression in cells treated with subject compounds relative to negative control (DMSO)” value is listed as 375%. In addition, in the data set on mouse C57BL/6 T cells, the activity at 10 µM amounted to 183%.
Turning to `O=C1CN(c2c(O)cc3ccc(OC(F)F)nc3c2F)S(=O)(=O)N1` [Compound 197], the IC50 at PTPN2 and at PTP1B was at most 1 µM each time. In addition, the activation at 3 µM in data set [2] is above 10%. Also, in [1], the “% CD25 expression in cells treated with subject compounds relative to negative control (DMSO)” value was 436%. Also, the activity at 10 µM in the data set with mouse C57BL/6 T cells worked out at 196%.
For `O=C1CN(c2c(O)cc3ccc(OC4CCC4)nc3c2F)S(=O)(=O)N1` [Compound 205], the concentration for half-maximal inhibition (IC50) at PTPN2 and at PTP1B was at most 1 µM each time. Besides, the “% CD25 expression in cells treated with subject compounds relative to negative control (DMSO)” value in data set [1] is reported as 423%.
Regarding `COc1ccc2cc(O)c(N3CC(=O)NS3(=O)=O)c(F)c2n1` [Compound A], in the data set with B16F10 cells [3], the “CD38+/CD11b+ “M1” Macrophages” value is recorded as “increase” and the “TIM3+/PD1+ T cells” value was “increase”. Further, in data set [4] (setting [7]), the “% F, Compound A vs. Reference CMPD ((Compound A/Reference CMPD) × 100%)” value amounted to 195%; the “AUClast, Compound A vs. Reference CMPD ((Compound A/Reference CMPD) × 100%)” value is 356%; the “Cmax, Compound A vs. Reference CMPD ((Compound A/Reference CMPD) × 100%)” value was 495%. Besides, in data set [4] (mouse pharmacokinetic model, relative to Reference CMPD), the “AUCfinal of Compound A as % of that of the Reference CMPD” value amounted to 356%. Moreover, in [5] (setting [8]), the “% F, Compound A vs. Reference CMPD ((Compound A/Reference CMPD) × 100%)” value is recorded as 208%; the “AUClast, Compound A vs. Reference CMPD ((Compound A/Reference CMPD) × 100%)” value is 224%; the “Cmax, Compound A vs. Reference CMPD ((Compound A/Reference CMPD) × 100%)” value is listed as 155%. Moreover, the “AUCfinal of Compound A as % of that of the Reference CMPD” value in data set [5] (rat pharmacokinetic model, relative to Reference CMPD) was 224%. The “Tumor volume / tumor growth inhibition (FIG. 3)” value in the data set on B16F10 cells [6] is “apparent tumor stasis and shrinkage”.

The record behind these values is patent US20240166641A1, “HETEROCYCLES AND USES THEREOF” (Kumquat Biosciences Inc., priority 2021, published 2024).
